{
  "source": "patent US20200308539A1",
  "about": "“AFFINITY-TAGGED PHOTOSWITCHES AND METHODS OF USE THEREOF” (The Regents of the University of California, priority 2017, published 2020)",
  "key": {"mGluR5 [1]": {"molecular_target": "T1, mGluR5 (Homo sapiens, UniProt P41594)", "T1 construct": "expressed in transfected cells; host or cells: HEK293 cells", "T1 sequence (P41594 21-1212)": "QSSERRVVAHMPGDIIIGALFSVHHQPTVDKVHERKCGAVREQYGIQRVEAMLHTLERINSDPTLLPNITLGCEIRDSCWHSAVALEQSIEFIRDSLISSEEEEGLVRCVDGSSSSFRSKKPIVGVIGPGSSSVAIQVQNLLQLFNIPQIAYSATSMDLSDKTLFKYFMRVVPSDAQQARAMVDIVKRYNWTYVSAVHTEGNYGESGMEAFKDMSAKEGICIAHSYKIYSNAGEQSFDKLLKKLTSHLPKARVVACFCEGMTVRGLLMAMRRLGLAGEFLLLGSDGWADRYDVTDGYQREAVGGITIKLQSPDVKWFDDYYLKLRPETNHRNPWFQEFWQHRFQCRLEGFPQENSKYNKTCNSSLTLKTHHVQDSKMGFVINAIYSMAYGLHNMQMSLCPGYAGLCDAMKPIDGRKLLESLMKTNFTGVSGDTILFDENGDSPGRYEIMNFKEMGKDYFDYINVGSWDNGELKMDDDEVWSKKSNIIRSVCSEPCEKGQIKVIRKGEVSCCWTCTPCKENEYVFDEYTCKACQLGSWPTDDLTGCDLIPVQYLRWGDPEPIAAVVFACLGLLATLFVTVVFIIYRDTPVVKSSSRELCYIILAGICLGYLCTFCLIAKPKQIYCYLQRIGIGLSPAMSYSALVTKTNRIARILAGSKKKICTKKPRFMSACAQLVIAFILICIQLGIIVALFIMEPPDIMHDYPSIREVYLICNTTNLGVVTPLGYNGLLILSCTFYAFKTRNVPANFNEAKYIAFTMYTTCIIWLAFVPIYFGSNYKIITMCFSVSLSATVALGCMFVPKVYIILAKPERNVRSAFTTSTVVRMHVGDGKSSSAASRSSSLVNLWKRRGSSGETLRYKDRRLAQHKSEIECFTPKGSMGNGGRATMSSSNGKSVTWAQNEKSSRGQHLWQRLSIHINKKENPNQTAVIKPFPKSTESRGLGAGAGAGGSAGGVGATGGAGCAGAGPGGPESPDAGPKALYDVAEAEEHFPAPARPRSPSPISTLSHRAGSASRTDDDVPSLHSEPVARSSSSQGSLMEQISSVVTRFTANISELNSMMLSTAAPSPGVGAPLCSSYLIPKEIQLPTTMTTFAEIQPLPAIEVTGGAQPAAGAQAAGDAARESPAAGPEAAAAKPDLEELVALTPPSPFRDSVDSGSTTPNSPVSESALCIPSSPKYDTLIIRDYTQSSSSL", "assay": "Calcium waves (FLUO-4) in HEK293 cells expressing mGluR5", "assay_type": "cell-based", "settings": "HEK293 cells expressing mGluR5, FLUO-4", "description": "(§1) However, the goal was to target the native, unmodified proteins in cells, tissues or the intact organism, and this would require the affinity moiety to attach directly to the target protein, something that could impact function of the target protein. […] This notion was tested by asking whether there would be a functional impact of nanobody binding to an mGluR. For this purpose, mGluR5 was selected. mGluR5 is a Gq-coupled receptor whose activation stimulates phospholipase C to generate IP3 and trigger the release of calcium from internal stores, which could detect with the calcium indicator FLUO-4 that was loaded into the cells in its AM ester form. […] The activation of the receptor by NB-8260 could be directly detected using single molecule fluorescence resonance energy transfer (smFRET). SNAP-mGluR5 dimers labeled in HEK293 cells with a mixture of FRET donor and acceptor (green and red) BG dyes were isolated by cell lysis and immune-purified and immobilized at low density on a passivated glass surface (FIG. 6A) for total internal reflection fluorescence (TRIF) microscopy. Individual spots containing both the green and red dye (i.e. one on each subunit of the dimer) were selected for analysis and FRET levels measured: i) in the absence of ligand; ii) in 0.8 mM glutamate; iii) in the presence of a nanobody; or iv) in a combination of 0.8 mM glutamate and the nanobody. […]"}, "mGluR5 [2]": {"tested_on": "mGluR5", "assay": "Single molecule FRET (smFRET) of SNAP-mGluR5 dimers, TIRF microscopy", "assay_type": "biochemical", "settings": "0.8 mM glutamate; absence of ligand ~0.5", "description": "as §1"}},
  "data": [
    {"smiles": "N[C@@H](CCC(=O)O)C(=O)O", "note": "[glutamate]", "values": [
      {"measurement": "activation of calcium waves", "setting": "mGluR5 [1]", "result": "activates calcium waves"},
      {"measurement": "FRET level", "setting": "mGluR5 [2]", "result": "~0.3"}
    ]}
  ]
}
